Source: patent US12054495B2, “Substituted macrocyclic compounds and related methods of treatment” (Alkermes, Inc., priority 2019, dated 2024)

Assays:
[1] = system: human hepatocytes; assay: Hepatocytes stability assay (human hepatocytes); assay type: in vitro ADME; conditions: scaled hepatic clearance divided by liver blood flow, fu assumed unity
Experimental: (§1) In vitro metabolic stability was assessed using cryopreserved hepatocytes from male Sprague Dawley rats and a pool of 50 mixed gender humans (BioIVT, Baltimore, MD). The incubation mixtures were prepared by mixing 250 μL of pre-warmed KHB (Krebs-Henseleit buffer) containing 2×10^6 cell/mL of hepatocytes with 250 μL of pre-warmed KHB buffer containing 2 μM of test compounds in a 48-well plate, giving a final concentration of 1 μM test compound (0.1% DMSO) and 1×10^6 cell/mL of hepatocytes. The reaction mixture was incubated at 37 degrees C. A 50 μL aliquot of incubation mixture was taken at time points (0, 15, 30, 60, 120 and 240 minutes) and transferred into a 96-well plate containing 300 μL ice-cold acetonitrile (containing 30 ng/mL of labetalol and 10 ng/mL of Naltrexone-d3 as internal standards) and immediately placed in ice to terminate the reaction. Samples were centrifuged, and supernatants were transferred into 96-well plates for liquid chromatography with tandem mass spectrometry (LC-MS/MS) analysis to monitor the depletion of the test compound.
(§2) Data was calculated as percent remaining by assuming zero-minute time point peak area ratio (analyte/IS) as 100% and dividing remaining time point peak area ratios by zero-minute time point peak area ratio. Data were fitted to a first-order decay model to determine half-life. From a plot of log (ln) peak area against time, the slope of the line was determined. Subsequently, half-life (T1/2) and intrinsic clearance (CLint) were calculated using the equations below: Elimination rate constant (k)=(−slope) Half-life (T1/2)min=0.693/k Intrinsic Clearance (CLint) (mL/min/million cells)=(V×0.693)/T1/2 V=incubation volume mL/number of cells The in vitro T1/2 was converted to in vitro intrinsic clearance (CLint,hep) in units of mL/min/kg using the formula shown below:
(§3) [formula] The in vitro intrinsic clearance (CLint,hep) was scaled to in vivo hepatic clearance (CL,hep) using the following equation which was adapted from a well-stirred model.
(§4) [formula] where Q is the liver blood flow and fu is the fraction unbound (assumed to be unity in this case). All parameters used in the calculation are shown below (Table 4).
(§5) The extraction ratio (ER) was calculated by dividing the hepatic clearance of a compound to the liver blood flow. The data reported in Table 5 were obtained according to the human hepatocytes stability assay described above.

[2] = Hepatocytes stability assay (human hepatocytes); assay type: in vitro ADME; conditions: both sexes, cryopreserved hepatocytes, 1 μM test compound, 1×10^6 cell/mL, 37 degrees C, read-out: CLint (μL/min/million cells)
Experimental: as §1, §2, §3, §4, §5

[3] = system: MDR1; assay: MDCK-MDR1 permeability assay; assay type: in vitro ADME; conditions: dog; for Papp A→B at 2 h, 3 μM: MDCK-MDR1, MDCK-MDR1 cells, apical to basolateral, 3 μM test compound, 2 hours at 37 degrees C; for efflux ratio at 2 h, 3 μM: MDCK-MDR1, Papp (basolateral to apical) divided by Papp (apical to basolateral), MDCK-MDR1 cells, read-out: Efflux ratio (ER)
Experimental: The bidirectional permeability (Apical to Basal and Basal to Apical directions) of test compounds in MDCK-MIDR1 cells were evaluated using MDCK-MIDR1 cells seeded in Solvo PreadyPort™ MIDCK 96-well plate. Once the plate was received from ReadyCell (Barcelona, Spain), it was treated as per PreadyPort™ user's manual.
For the Apical to Basolateral (A→B) permeability, 80 μL of test compound (3 μM) co-dosed with LY (Lucifer Yellow) (100 μM) in HBSS (Hank's Balanced Salt Solution) assay buffer was added to the donor side (A) while 250 μL of HBSS buffer was added to the receiver side (B). For the Basolateral to Apical (B→A) permeability, 255 μL of test compound (3 μM) in HBSS assay buffer was added to the donor side (B) while 75 μL of HBSS buffer containing LY (100 μM) was added to the receiver side (A).
The plate was placed in an incubator set at 37 degrees C. After 10 minutes of pre-warming, 5 μL aliquot was taken from donor compartment and set aside as the dosing solution. The MDCK-MDR1 incubation plate was placed back into the incubator for 2 hours of incubation at 37 degrees C. After 2 hours of incubation, 25 μL and 5 μL aliquots were removed from the receiver and donor sides, respectively. To the 5 μL aliquots taken from the donor sides (before and after a 2-hour incubation) were diluted with 20 μL of the HBSS buffer. All samples were mixed with 150 μL with acetonitrile containing internal standard (IS) and 200 μL water, and analyzed by LC-MS/MS.
The apparent permeability (Papp) was calculated using the following formula: Papp=dQ/dt×1/A×C0 where: • dQ/dt: amount of translocated material over incubation time (nmol/s) • A: area of insert (0.14 cm^2 for PreadyPort™ MDR1-96) • C0: initial concentration of product applied in apical (A→B) or basal (B→A) compartment (nmol/mL)
The efflux ratio (ER) was measured by dividing the Papp (basolateral to apical direction) by Papp (apical to basolateral direction). It is a general measure of the involvement of active processes. An ER>2 is considered positive for active transport.
The data reported in Table 3 were obtained according to the MDCK-MIDR1 permeability assay described above.

[4] = target: T1, human orexin-2 receptor (OX2R) (Homo sapiens, UniProt O43614); assay: Human OX2R IP1 assay; assay type: cell-based; conditions: T-Rex CHO cells stably overexpressing human OX2R, IP1 accumulation, 1 hr at 37 degrees C; mean EC50; ∧ = racemic mixture
T1 construct: expressed in transfected cells
T1 sequence (O43614 1-444): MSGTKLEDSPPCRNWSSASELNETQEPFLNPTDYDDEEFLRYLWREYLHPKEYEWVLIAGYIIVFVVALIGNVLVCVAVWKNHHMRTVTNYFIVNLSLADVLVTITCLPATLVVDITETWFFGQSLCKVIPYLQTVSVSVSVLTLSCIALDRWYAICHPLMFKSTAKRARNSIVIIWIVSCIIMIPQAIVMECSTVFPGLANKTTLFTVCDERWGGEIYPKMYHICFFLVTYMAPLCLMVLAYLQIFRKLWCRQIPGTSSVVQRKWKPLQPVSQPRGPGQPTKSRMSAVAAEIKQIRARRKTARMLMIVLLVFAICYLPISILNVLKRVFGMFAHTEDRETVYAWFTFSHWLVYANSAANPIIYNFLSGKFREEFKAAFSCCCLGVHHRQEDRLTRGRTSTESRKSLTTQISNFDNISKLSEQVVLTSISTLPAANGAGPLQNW
Experimental: T-Rex CHO cells stably overexpressing the human orexin-2 receptor (OX2R) were induced overnight with 1 μg/mL of doxycycline in a T225 flask. 24 hours post induction, cells were lifted with accutase and plated into a 384-well proxy plate at 30,000 cells/well. Cells were then treated with different test compounds in 1× stimulation buffer containing 10 mM Hepes, 1 mM CaCl2), 0.5 mM MgCl2, 4.2 mM KCl, 146 mM NaCl, 5.5 mM glucose, and 50 mM LiCl, pH 7.4, for 1 hr at 37 degrees C. Following incubation, the reaction was terminated by the addition of detection mix, which is composed of IP1-d2 and anti-IP1-cryptate diluted in lysis buffer as well as 1× stimulation buffer. The plates were allowed to incubate for 1 hour at room temperature and were then read in the EnVision® multimode plate reader, measuring inositol phosphate levels.
Cisbio IP1 is a cell-based functional assay quantifying the accumulation of inositol monophosphate (IP), a metabolite released as a result of orexin 2 receptor activation through the phospholipase C-Gq signaling pathway. This is a competitive immunoassay in which the IP1 produced by the cells upon receptor activation competes with the IP1 analog coupled to the d2 fluorophore (acceptor) for binding to an anti-IP1 monoclonal antibody labeled with Eu cryptate (donor). The measured HTRF-FRET based signal is inversely proportional to the IP1 concentration produced.
The EC50 values reported in Table 2 were obtained according to the human OX2R IP1 assay described above. Data are the mean EC50 values ±S.E.M. The compound methyl (2R,3S)-3-((methylsulfonyl)amino)-2-(((cis-4-phenylcyclohexyl)oxy)methyl)-piperidine-1-carboxylate is a reference compound which is disclosed in Example 5 of PCT publication no. WO2017/135306.

Row | Structure (SMILES) | Extraction Ratio (ER) [1] | hepatocyte CLint at 1 μM [2] [µL/min/1e6 cells] | Papp A→B at 2 h, 3 μM [3] [×10⁻⁶ cm/s] | efflux ratio at 2 h, 3 μM [3] | EC50 [4] [nM]
1 | CS(=O)(=O)N[C@@H]1CCCN2C(=O)COc3cccnc3[C@H]3CC[C@H](CC3)OC[C@H]12 (racemic) [Compound 15] | <0.22 | < 1.9 | 0.08 | 22 | 100 to 1000
2 | CS(=O)(=O)N[C@@H]1CCCN2C(=O)COc3ccncc3[C@H]3CC[C@H](CC3)OC[C@H]12 (racemic) [Compound 45] | <0.22 | < 1.9 | 0.15 | 12 | 100 to 1000
3 | CS(=O)(=O)N[C@@H]1CCCN2C(=O)COc3cnccc3[C@H]3CC[C@H](CC3)OC[C@H]12 (racemic) [Compound 47] | 0.31 | 3 | 0.09 | 49 | < 100
4 | CS(=O)(=O)N[C@H]1CCCN2C(=O)COc3ccccc3C3CC[C@@H](CO3)OCC12 (stereo partly drawn) [Compound 8] | 0.46 | 5.8 | 0.48 | 3.8 | < 100
5 | CS(=O)(=O)N[C@H]1CCCN2C(=O)COc3ccccc3C3CC[C@H](CO3)OCC12 (stereo partly drawn) [Compound 9] | 0.50 | 6.7 | 0.45 | 2.6 | < 100
6 | C[C@@H]1Oc2ccccc2C2CCC(CC2)OCC2[C@@H](NS(C)(=O)=O)CCCN2C1=O (stereo partly drawn) [Compound 37] | 0.82 | 30 | 0.91 | 27 | < 100
7 | C[C@H]1Oc2ccccc2C2CCC(CC2)OCC2[C@@H](NS(C)(=O)=O)CCCN2C1=O (stereo partly drawn) [Compound 38] | 0.82 | 30 | 0.77 | 18 | < 100
8 | CC1(C)CN2CCC[C@H](NS(C)(=O)=O)C2COC2CCC(CC2)c2ccccc2O1 (stereo partly drawn) [Compound 44] | 0.91 | 65 | 6.3 | 1.9 | –
9 | C[C@H]1CN2CCC[C@H](NS(C)(=O)=O)C2COC2CCC(CC2)c2ccccc2O1 (stereo partly drawn) [Compound 48] | 0.90 | 60 | 7.3 | 1.5 | < 100
10 | [2H][C@@H]1[C@@H]2C[C@H]([2H])[C@@]([2H])(c3cc(F)cc(F)c3OCC(=O)N3CCC[C@H](NS(C)(=O)=O)C3CO2)[C@@H]1[2H] (stereo partly drawn) [Compound 50] | 0.70 | 16 | 1.2 | 21 | < 100
11 | CS(=O)(=O)N[C@H]1CCCN2C(=O)C(F)(F)Oc3c(F)cc(F)cc3C3CCC(CC3)OCC12 (stereo partly drawn) [Compound 52] | 0.87 | 44 | 1.2 | 12 | –
12 | CS(=O)(=O)N[C@H]1CCN2C(=O)C(F)(F)Oc3ccccc3C3CCC(CC3)OCC12 (stereo partly drawn) [Compound 53] | 0.92 | 19 | 2.8 | 7.9 | –
13 | CS(=O)(=O)N[C@H]1CCN2C(=O)C(F)(F)Oc3c(F)cc(F)cc3C3CCC(CC3)OCC12 (stereo partly drawn) [Compound 54] | 0.89 | 56 | 2.6 | 7.3 | –
14 | CS(=O)(=O)N[C@H]1CCCN2C(=O)COc3ccc(Br)cc3C3CCC(CC3)OCC12 (stereo partly drawn) [Compound 57] | 0.24 | 2.1 | 0.16 | 51 | –
15 | CS(=O)(=O)N[C@H]1CCCN2CCOc3c(F)cc(F)cc3C3CCC(CC3)OCC12 (stereo partly drawn) [Compound 58] | 0.90 | 62 | 1.5 | 10 | –
16 | CS(=O)(=O)N[C@H]1CCCN2CCOc3ccc(Cl)cc3C3CCC(CC3)OCC12 (stereo partly drawn) [Compound 61] | 0.83 | 33 | 2 | 5.5 | –
17 | CS(=O)(=O)N[C@H]1CCCN2C(=O)COc3ncc(F)cc3C3CCC(CC3)OCC12 (stereo partly drawn) [Compound 64] | 0.57 | 9 | 0.83 | 30 | –
18 | CS(=O)(=O)N[C@H]1CCCN2CCOc3ncccc3C3CCC(CC3)OCC12 (stereo partly drawn) [Compound 65] | 0.84 | 34 | 15 | 0.5 | –
